Test results: US20230220443A1, “CHARACTERIZATION OF S-ADENOSYL-L-METHIONINE-CONSUMING ENZYMES WITH 1-STEP EZ-MTASE: A UNIVERSAL COUPLED-ASSAY” (ALBERT EINSTEIN COLLEGE OF MEDICINE, priority 2017, published 2023)

Key:
GsSDMT = biological target: T1, GsSDMT (Galdieria sulphuraria, UniProt M2XPA0); experiment: 1-Step EZ-MTase UV-based coupled assay, GsSDMT kinetics; assay type: biochemical; conditions: for Km / kcat: pH=7.80, co-substrate saturating
T1 sequence (M2XPA0 2-297): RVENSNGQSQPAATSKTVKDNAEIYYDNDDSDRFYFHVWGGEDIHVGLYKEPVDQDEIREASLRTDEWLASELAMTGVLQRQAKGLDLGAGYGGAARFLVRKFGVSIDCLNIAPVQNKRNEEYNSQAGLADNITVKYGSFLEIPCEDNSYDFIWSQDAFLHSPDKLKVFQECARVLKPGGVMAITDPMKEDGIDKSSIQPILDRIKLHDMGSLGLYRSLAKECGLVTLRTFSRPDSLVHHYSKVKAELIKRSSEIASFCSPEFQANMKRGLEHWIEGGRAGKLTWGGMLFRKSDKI
Procedure: Kinetic behavior for sarcosine against GsSDMT (SAM sat.)—Experiments were conducted following matching CePRMT5 protocol above. Briefly, the 100-μL mixtures from a same row contained 100 mM phosphate buffer pH=7.80, 1 mM βME, 5% glycerol, 100 μM MgCl2, 4 μM coupling deaminase TM0936, 976 nM GsSDMT and various sarcosine concentrations (0.5-12.5 mM; in the first well, sarcosine was omitted to account for background signal—natural decomposition of SAM). Reactions started upon addition of SAM (750 μM saturating final concentration), 60-μL volumes were transferred onto UV plate and absorbance was recorded. Initial rates were first corrected for background signal, and then plotted against sarcosine concentrations. Fit to the Michaelis-Menten equation provided corresponding kinetic parameters.
Kinetic behavior for SAM against GsSDMT (sarcosine sat.)—Experiments were conducted following matching CePRMT5 protocol above. Briefly, the measurements consisted of two experimental subsets: MTase reactions (both SAM and sarcosine added) and MTase blanks (SAM was added without sarcosine to account for natural SAM decomposition). The 100-μL reaction mixtures from a same row contained 100 mM phosphate buffer pH=7.80, 1 mM βME, 5% glycerol, 100 μM MgCl2, 4 μM coupling deaminase TM0936, 195 nM GsSDMT and various SAM concentrations (49.9-750.2 μM). Reactions started upon addition of either sarcosine (10 mM saturating final concentration; MTase reactions) or water (MTase blanks), 60-μL volumes were transferred onto UV plate and absorbance was recorded at 263 nm. Initial rates were first corrected for background signal, and then plotted against SAM concentrations. Fit to the Michaelis-Menten equation provided corresponding kinetic parameters.
(§1) Kinetic behavior for 8-aza-SAM against MTases (acceptor sat.)—Briefly, kinetic parameters were determined at 20° C. in a UV-Star 96-well flat bottom plate (Greiner Bio-One, #655801) by continuous monitoring of absorbance at 282 nm using a SpectraMax M5 instrument (Molecular Devices). As for SAM experiments, the measurements consisted of two experimental subsets: MTase reactions (both 8-aza-SAM and acceptor added) and MTase blanks (8-aza-SAM was added without acceptor to account for natural 8-aza-SAM decomposition). The 250-μL (60-μL) reaction mixtures from a same row contained 50 mM phosphate buffer pH=7.60 (7.80), 1 mM βME, 10% glycerol (5% glycerol, 100 μM MgCl2), 4 μM coupling deaminase TM0936, either 1.5 μM CePRMT5 or 402 nM TbPRMT7 (or 610 nM GsSDMT) and various 8-aza-SAM concentrations. […] Initial rates were first corrected for background signal, then plotted against 8-aza-SAM concentrations and fitted to the Michaelis-Menten equation to yield corresponding kinetic parameters.

TbPRMT7 = biological target: T2, TbPRMT7 (Trypanosoma brucei brucei, UniProt Q582G4); experiment: 1-Step EZ-MTase UV-based coupled assay, TbPRMT7 kinetics (incl. ionic strength); assay type: biochemical; conditions: for Km / kcat: pH=7.60, 25 mM phosphate, co-substrate saturating
T2 construct: made in house
Procedure: Briefly, the 250-μL reaction mixtures from a same row contained 25 mM phosphate buffer pH=7.60, 1 mM βME, 10% glycerol, 4 μM coupling deaminase TM0936, 1.0 μM TbPRMT7 and various peptide concentrations (16.6-243.3 μM; in the first well, peptide acceptor was omitted to account for background signal—natural decomposition of SAM). Reactions started upon addition of SAM (25.8 μM saturating final concentration) and absorbance was recorded. […] Fit to the Michaelis-Menten model (Eq. 5) provided corresponding kinetic parameters:
Briefly, the measurements consisted of two experimental subsets: MTase reactions (both SAM and peptide added) and MTase blanks (SAM was added without peptide to account for natural SAM decomposition). The 250-μL reaction mixtures from a same row contained 25 mM phosphate buffer pH=7.60, 1 mM βME, 10% glycerol, 4 μM coupling deaminase TM0936, 402 nM TbPRMT7 and various SAM concentrations (1.53-20.0 μM). […] Initial rates were first corrected for background signal, then plotted against SAM concentrations and fitted to the Morrison kinetic model to yield corresponding kinetic parameters.
as §1, with “parameters. The kinetic data from CePRMT5 were fit to the following Eq. 6 to reflect substrate inhibition observed at higher 8-aza-SAM concentration:” for “parameters.”
Experiments were conducted following TbPRMT7 protocol above. Briefly, the 250-μL reaction mixtures from a same row contained either 25, 50, 75 or 100 mM phosphate buffer pH=7.60, 1 mM βME, 10% glycerol, 4 μM coupling deaminase TM0936, 1.0 μM TbPRMT7 and various peptide concentrations (16.6-243.3 μM; in the first well, peptide acceptor was omitted to account for background signal—natural decomposition of SAM). Reactions started upon addition of SAM (25.8 μM saturating final concentration) and absorbance was recorded. […] The four fits to the Michaelis-Menten equation (kcat fixed at 29 h^−1) provided corresponding Km values and established impact of ionic strength onto this kinetic parameter.

T2 sequence (Q582G4 whole entry): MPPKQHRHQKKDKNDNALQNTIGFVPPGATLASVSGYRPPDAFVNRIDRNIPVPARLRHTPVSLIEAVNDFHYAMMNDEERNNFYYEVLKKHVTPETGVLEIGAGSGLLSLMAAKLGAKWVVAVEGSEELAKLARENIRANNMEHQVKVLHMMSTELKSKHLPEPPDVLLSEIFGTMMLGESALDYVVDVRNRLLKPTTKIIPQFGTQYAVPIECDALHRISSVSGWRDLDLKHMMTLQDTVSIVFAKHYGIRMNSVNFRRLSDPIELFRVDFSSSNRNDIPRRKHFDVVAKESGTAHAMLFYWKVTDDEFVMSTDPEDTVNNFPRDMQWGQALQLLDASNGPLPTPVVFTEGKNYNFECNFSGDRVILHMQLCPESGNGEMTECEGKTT

| Compound | substrate inhibition (inhibitory behavior of the analog) (GsSDMT) | Km (GsSDMT) [µM] | kcat (GsSDMT) [s⁻¹] | substrate inhibition (inhibitory behavior of the analog) (TbPRMT7) | Km (TbPRMT7) [µM] | kcat (TbPRMT7) [s⁻¹] |
| --- | --- | --- | --- | --- | --- | --- |
| C[S+](CC[C@H](N)C(=O)O)C[C@H]1O[C@@H](n2nnc3c(N)ncnc32)[C@H](O)[C@@H]1O (stereo partly drawn) [8-aza-SAM, S-8-aza-adenosyl-L-methionine] | not observed | 443 ± 33 | 1.35 ± 0.05 | not observed | 15.3 ± 0.7 | 0.00639 ± 0.00011 |
| C[S+](CC[C@H](N)C(=O)O)C[C@H]1O[C@@H](n2cnc3c(N)ncnc32)[C@H](O)[C@@H]1O (stereo partly drawn) [SAM, S-adenosyl-L-methionine] | – | 95 ± 18 | 0.7 ± 0.033 | – | 1.1 ± 0.2 | 0.00619 ± 0.00017 |
